Experiments:
[1] = target: T1, sigma-1 receptor (Homo sapiens, UniProt Q99720); experiment: Displacement of [3H](+)pentazocine from sigma-1 receptor expressed in Jurkat cells; format: binding
T1 construct: sigma-1 receptor expressed in Jurkat cells; endogenous in cells; host or cells: Jurkat cells

[2] = test system: PC12 cells; experiment: Reversal of Aβ1-42-induced ATP depletion (ATPLite-M assay); settings: for ATP decrease induced by Aβ1-42, Aβ1-42 control = 100% reduction: 24 h pre-incubation, 24 h
[3] = target: σ2-receptor (Homo sapiens, UniProt Q5BJF2); experiment: σ2-receptor binding
[4] = test system: PC12 cells; experiment: Neuroprotection against Aβ1-42 cytotoxicity, MTT assay (NADPH diaphorase activity); format: cell-based, rat
[5] = cited from earlier work
[6] = test system: PC12 cells; experiment: Glutamate-induced excitotoxicity, MTT assay; format: cell-based, rat; settings: compound 0.3-30 μM 24 h pre-incubation; glutamate 100 μM 24 h
[7] = test system: HMG-CoA reductase mRNA; experiment: HMG-CoA reductase mRNA synthesis, real-time quantitative PCR; format: cell-based, rat
[8] = test system: PC12 cells; experiment: Aβ1-42-induced free radical production (2,7-DCF fluorescent probe); settings: compound 1-100 μM 24 h pre-incubation; Aβ1-42 0.1-10 μM 24 h
[9] = compound 1-100 μM, Aβ1-42 0.1-10 μM

T1 sequence (Q99720 whole entry): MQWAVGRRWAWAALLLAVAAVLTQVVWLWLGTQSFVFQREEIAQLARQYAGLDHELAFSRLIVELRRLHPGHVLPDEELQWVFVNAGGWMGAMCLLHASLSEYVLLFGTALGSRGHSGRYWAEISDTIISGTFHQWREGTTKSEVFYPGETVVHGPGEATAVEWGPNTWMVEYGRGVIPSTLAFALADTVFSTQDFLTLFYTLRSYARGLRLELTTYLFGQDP
Chain of σ2-receptor (Q5BJF2 whole entry, species assumed): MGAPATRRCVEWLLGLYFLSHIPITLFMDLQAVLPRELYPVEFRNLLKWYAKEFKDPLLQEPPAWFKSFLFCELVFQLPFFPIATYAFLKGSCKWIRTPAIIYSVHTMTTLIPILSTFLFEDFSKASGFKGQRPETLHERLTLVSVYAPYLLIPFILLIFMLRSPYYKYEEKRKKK

CCN(CC)CCOC(=O)c1ccc(N)cc1 [Procaine, 4-aminobenzoic acid 2-(diethylamino)ethyl ester]
Hill coefficient (nH) [1]: 1.0
IC50 [1]: 4.3 µM
ATP decrease induced by Aβ1-42, Aβ1-42 control = 100% reduction ([2]; compound 1 μM, Aβ1-42 0.1 μM): 64.0 ± 24.4 %
ATP decrease induced by Aβ1-42, Aβ1-42 control = 100% reduction ([2]; compound 1 μM, Aβ1-42 1 μM): 67.8 ± 13.8 %
ATP decrease induced by Aβ1-42, Aβ1-42 control = 100% reduction ([2]; compound 1 μM, Aβ1-42 10 μM): 86.8 ± 5.5%
ATP decrease induced by Aβ1-42, Aβ1-42 control = 100% reduction ([2]; compound 10 μM, Aβ1-42 0.1 μM): 56.0 ± 16.4 %
ATP decrease induced by Aβ1-42, Aβ1-42 control = 100% reduction ([2]; compound 10 μM, Aβ1-42 1 μM): 97.0 ± 45.5%
ATP decrease induced by Aβ1-42, Aβ1-42 control = 100% reduction ([2]; compound 10 μM, Aβ1-42 10 μM): 89.8 ± 5.1%
ATP decrease induced by Aβ1-42, Aβ1-42 control = 100% reduction ([2]; compound 100 μM, Aβ1-42 0.1 μM): 42.8 ± 16.9 %
ATP decrease induced by Aβ1-42, Aβ1-42 control = 100% reduction ([2]; compound 100 μM, Aβ1-42 1 μM): 69.6 ± 12.1 %
ATP decrease induced by Aβ1-42, Aβ1-42 control = 100% reduction ([2]; compound 100 μM, Aβ1-42 10 μM): 83.6 ± 20.6%
effect on Aβ1-42-induced ATP decrease, in words [2, 9]: protected against the 0.1 μM Aβ1-42-induced depletion of ATP concentrations in a dose-dependent manner
IC50 [3]: > 10 µM
reduction of the NADPH diaphorase inhibition induced by Aβ1-42 ([4]; 1 and 10 μM procaine): at least 30%
protective effect against Aβ1-42 neurotoxicity (MTT), in words [4, 9]: important protective effect against 0.1 and 1 μM Aβ1-42 induced toxicity
pKa [5]: 8.9
neuroprotective effect against glutamate-induced cell death (MTT), in words [6]: prevented the glutamate-induced neurotoxicity in a biphasic manner
basal level of HMG-CoA reductase mRNA, in words ([7]; control PC12 cells, no Aβ1-42): did not affect
level of HMG-CoA reductase mRNA induced by Aβ1-42, in words ([7]; procaine 1 or 10 μM 18 h pre-incubation, Aβ1-42 1 μM 24 h): decreased in a dose-dependent manner
effect on Aβ1-42-induced free radical production, in words [8]: exhibited a trend to reduce the Aβ1-42-induced free radical production

Reference: patent publication US20090286876A1, “NEUROPROTECTIVE BENZOATE AND BENZAMIDE COMPOUNDS” (Samaritan Pharmaceuticals, Inc., priority 2003, published 2009)
